Read-outs that look alike come from different tables or passages of the source.

The target in experiment [1] is full-length human RORγt (Homo sapiens (Human), UniProt P51449). Nature of the experiment: RORγt (full-length human) reporter assay, Conditions B or C. The format is cell-based. The note with it: for inhibition at 3 µM: at 3 μM compound concentration; for RORγt (FL) Reporter Assay B or C, % inhibition (value marked *): marked *: footnote not given. Summed up: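 Readout is dual luciferase: firefly (GAL4-driven) normalized to DMSO-only and saturating-reference controls, then to CMV-Renilla. Full-length human RORγt fused to GAL4-DBD was transiently expressed in HEK293T; compound exposure ran overnight (16-20 h) starting 4-6 h after transfection, final FBS 1.3%, DMSO 0.1%.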

Experiment [2] has as its target human RORγt ligand binding domain (RORγt LBD) (Homo sapiens (Human), UniProt P51449). Nature of the experiment: RORγt ThermoFluor® assay (thermal shift binding). The note with it: read-out: ThermoFluor® Assay, Kd. An outline of the steps: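 Binding was inferred from thermal stabilisation (ΔTm) of the E. coli-expressed RORγt LBD (0.065 mg/mL), monitored by 1,8-ANS (60 μM) emission at 500 nm during a 1 °C/min ramp. Buffer was Hepes 100 mM pH 7.0 with NaCl, GSH and Tween-20.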
In general terms: In DSF a fluorescence change marks the thermal transition of the protein.

[3] abbreviates: read-out: RORγt (FL) Reporter Assay B or C, % inhibition.
Where [4] appears, read: read-out: RORγt (FL) Reporter Assay B or C, IC50.
The mark [5] stands for this setting: Conditions B or C, read-out: RORγt (FL) Reporter Assay B or C, IC50.
Where [6] appears, read: RORγt (FL) Reporter Assay B or C, IC50 (μM), Conditions B or C.

Chain of full-length human RORγt (P51449 other isoform, or with tags, fused parts or gaps): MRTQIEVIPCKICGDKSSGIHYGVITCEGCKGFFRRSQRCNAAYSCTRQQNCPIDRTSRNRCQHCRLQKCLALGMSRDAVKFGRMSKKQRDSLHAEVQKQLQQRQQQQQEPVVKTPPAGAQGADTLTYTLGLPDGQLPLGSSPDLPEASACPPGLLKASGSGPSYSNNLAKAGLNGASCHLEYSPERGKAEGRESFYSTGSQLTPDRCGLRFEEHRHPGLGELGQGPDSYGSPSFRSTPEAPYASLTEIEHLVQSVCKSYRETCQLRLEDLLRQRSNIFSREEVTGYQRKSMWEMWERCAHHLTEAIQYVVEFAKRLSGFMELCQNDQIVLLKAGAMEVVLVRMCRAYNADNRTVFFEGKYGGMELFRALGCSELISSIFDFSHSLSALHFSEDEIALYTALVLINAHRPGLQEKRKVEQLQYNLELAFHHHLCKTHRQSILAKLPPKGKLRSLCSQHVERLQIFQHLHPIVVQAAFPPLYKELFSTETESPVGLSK
Chain of human RORγt ligand binding domain (RORγt LBD) (P51449 other isoform, or with tags, fused parts or gaps): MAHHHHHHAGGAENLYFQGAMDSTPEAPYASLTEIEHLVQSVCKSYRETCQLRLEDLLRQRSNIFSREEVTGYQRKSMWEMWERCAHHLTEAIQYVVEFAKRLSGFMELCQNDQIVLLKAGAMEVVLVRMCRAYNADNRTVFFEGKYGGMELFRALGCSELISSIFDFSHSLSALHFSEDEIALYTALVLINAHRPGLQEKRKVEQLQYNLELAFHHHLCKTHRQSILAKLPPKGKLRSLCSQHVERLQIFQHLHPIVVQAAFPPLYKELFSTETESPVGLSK

In general, inhibition refers to the drop in the measured response relative to a control, in per cent. For orientation: IC50 means the concentration at which inhibition is half-maximal. One may read the Kd as the free concentration of one partner at which half of the binding sites on the other are occupied at equilibrium, for simple one-to-one binding. For the compound `C[C@H]1CCCN1C(=O)c1nc(C(=O)N[C@H](C)C(C)(C)O)sc1-c1cnc(N[C@H](C)C(F)(F)F)cc1C(F)F` [Example 306, 5-(4-(Difluoromethyl)-6-(((R)-1,1,1-trifluoropropan-2-yl)amino)pyridin-3-yl)-N—((R)-3-hydroxy-3-methylbutan-2-yl)-4-((S)-2-methylpyrrolidine-1-carbonyl)thiazole-2-carboxamide], the inhibition at 3 µM in experiment [1] (setting [3]) turned out to be 104%. Further, the half-inhibitory concentration (IC50) in experiment [1] (setting [4]) was 0.13 µM. In experiment [2], the dissociation constant (Kd) was 10 nM.

Regarding `CC[C@H](Nc1cc(C(F)F)c(-c2sc(C(=O)N[C@H](C)C(C)(C)O)nc2C(=O)N2CC(F)(F)C[C@@H]2C)cn1)C(F)(F)F` [Example 245, 4-[(2S)-4,4-Difluoro-2-methyl-pyrrolidine-1-carbonyl]-5-[4-(difluoromethyl)-6-[[(1S)-1-(trifluoromethyl)propyl]amino]-3-pyridyl]-N-[(1R)-2-hydroxy-1,2-dimethyl-propyl]thiazole-2-carboxamide], in experiment [1] (Conditions B or C), the “RORγt (FL) Reporter Assay B or C, % inhibition (value marked *)” value (shortened to “RORγt … % inhibition (value marked *)”) is listed as 98* %. The IC50 in experiment [1] (setting [5]) stood at 0.026 µM. Besides, the Kd in experiment [2] was determined as 1.6 nM.

For the compound `CC(C)(O)CNC(=O)c1nc(C(=O)N2C3CCC2CC3)c(-c2cnc(NC(C3CC3)C3CC3)cc2C(F)(F)F)s1` [Example 137, 4-((1s,4s)-7-Azabicyclo[2.2.1]heptane-7-carbonyl)-5-(6-((dicyclopropylmethyl)amino)-4-(trifluoromethyl)pyridin-3-yl)-N-(2-hydroxy-2-methypropyl)thiazole-2-carboxamide], in experiment [1] (Conditions B or C), the “RORγt … % inhibition (value marked *)” value was 97* %. The IC50 in experiment [1] (setting [5]) stood at 0.012 µM. Besides, the Kd in experiment [2] was 1.1 nM.

For the compound `CC[C@H](Nc1cc(C(F)F)c(-c2sc(C(=O)N[C@H](C)CO)nc2C(=O)N2C3CCC2CC3)cn1)C(F)(F)F` [Example 227, 4-((1s,4s)-7-Azabicyclo[2.2.1]heptane-7-carbonyl)-5-(4-(difluoromethyl)-6-(((1S)-1-(trifluoromethyl)propyl)amino)-3-pyridyl)-N-((1R)-2-hydroxy-1-methyl-ethyl)thiazole-2-carboxamide], the “RORγt … % inhibition (value marked *)” value in experiment [1] (Conditions B or C) is listed as 95* %. In experiment [1] (setting [6]), this compound yielded a half-maximal inhibitory concentration (IC50) of 0.014 µM. Further, in experiment [2], the Kd was 4.6 nM.

On to `C[C@H](Nc1cc(C(F)F)c(-c2sc(C(=O)NC3CCOCC3)nc2C(=O)N2CC(F)(F)C[C@@H]2C)cn1)C(F)(F)F` [Example 448, 4-[(2S)-4,4-Difluoro-2-methyl-pyrrolidine-1-carbonyl]-5-[4-(difluoromethyl)-6-[[(1S)-2,2,2-trifluoro-1-methyl-ethyl]amino]-3-pyridyl]-N-tetrahydropyran-4-yl-thiazole-2-carboxamide], for which the inhibition at 3 µM in experiment [1] (setting [3]) came to 99%. Besides, in experiment [1] (setting [4]), the half-maximal inhibitory concentration (IC50) is 0.028 µM. Also, the equilibrium dissociation constant (Kd) in experiment [2] came out at 0.8 nM.

The compound `O=C(N[C@H]1CC[C@H](O)C1)c1nc(C(=O)N2C3CCC2CC3)c(-c2cnc(N[C@@H](C3CC3)C(F)(F)F)cc2C(F)F)s1` [Example 441, 4-((1s,4s)-7-Azabicyclo[2.2.1]heptane-7-carbonyl)-5-[6-[[(1S)-1-cyclopropyl-2,2,2-trifluoro-ethyl]amino]-4-(difluoromethyl)-3-pyridyl]-N-[(1S,3S)-3-hydroxycyclopentyl]thiazole-2-carboxamide] showed an IC50 in experiment [1] (RORγt (FL) Reporter Assay B or C, IC50) of 0.036 µM. In addition, in experiment [1] (setting [3]), the inhibition at 3 µM turned out to be 106%. Besides, the Kd in experiment [2] was determined as 0.47 nM.

With `C[C@H](Nc1cc(C(F)F)c(-c2sc(C(=O)N[C@H]3CC[C@H]3O)nc2C(=O)N2CCC[C@@H]2C)cn1)C(F)(F)F` (relative stereo) [Example 390, 5-(4-(Difluoromethyl)-6-(((S)-1,1,1-trifluoropropan-2-yl)amino)pyridin-3-yl)-N-((1S*,2R*)-2-hydroxycyclobutyl)-4-((S)-2-methylpyrrolidine-1-carbonyl)thiazole-2-carboxamide], the inhibition at 3 µM in experiment [1] (setting [3]) amounted to 99%. Also, in experiment [1] (setting [4]), the IC50 came to 0.028 µM. Further, the Kd in experiment [2] came out at 12 nM.

In the case of `CC[C@H](Nc1cc(C(F)(F)F)c(-c2sc(C(=O)N[C@H]3COC[C@@H]3O)nc2C(=O)N2C3CCC2CC3)cn1)C(F)(F)F` [Example 156], in experiment [1] (Conditions B or C), the “RORγt … % inhibition (value marked *)” value is recorded as 102* %. In experiment [1] (setting [6]), this compound showed an IC50 of 0.044 µM. Also, the dissociation constant Kd in experiment [2] worked out at 1 nM.

On to `C[C@H]1CCCN1C(=O)c1nc(C(=O)NC2CCS(=O)(=O)CC2)sc1-c1cnc(NC2(C)CCC2)cc1C(F)F` [Example 324, (S)-5-(4-(Difluoromethyl)-6-((1-methylcyclobutyl)amino)pyridin-3-yl)-N-(1,1-dioxidotetrahydro-2H-thiopyran-4-yl)-4-(2-methylpyrrolidine-1-carbonyl)thiazole-2-carboxamide], for which the inhibition at 3 µM in experiment [1] (setting [3]) was determined as 93%. In addition, the IC50 in experiment [1] (setting [4]) was determined as 0.038 µM. In addition, in experiment [2], the Kd came to 2.4 nM.

For the compound `CC(C)(O)CNC(=O)c1nc(C(=O)N2C3CCC2CC3)c(-c2cnc(NC3CCCC3)cc2C(F)F)s1` [Example 46, 4-((1s,4s)-7-Azabicyclo[2.2.1]heptane-7-carbonyl)-5-(6-(cyclopentylamino)-4-(difluoromethyl)pyridin-3-yl)-N-(2-hydroxy-2-methylpropyl)thiazole-2-carboxamide], the “RORγt … % inhibition (value marked *)” value in experiment [1] (Conditions B or C) is 100* %. Besides, the IC50 in experiment [1] (setting [5]) was found to be 0.029 µM. Besides, in experiment [2], the Kd was 4.2 nM.

As for `C[C@H](Nc1cc(C(F)F)c(-c2sc(C(=O)N[C@H](C)C(C)(C)O)nc2C(=O)N2C3CCC2CC3)cn1)C(F)(F)F` [Example 445, 4-((1s,4s)-7-Azabicyclo[2.2.1]heptane-7-carbonyl)-5-[4-(difluoromethyl)-6-[[(1S)-2,2,2-trifluoro-1-methyl-ethyl]amino]-3-pyridyl]-N-[(1R)-2-hydroxy-1,2-dimethyl-propyl]thiazole-2-carboxamide], the inhibition at 3 µM in experiment [1] (setting [3]) is 73%. In experiment [1] (setting [4]), the IC50 was found to be 0.096 µM. Moreover, in experiment [2], the Kd amounted to 12 nM.

Take `C[C@H]1CCCN1C(=O)c1nc(C(=O)N2CC(C)(O)C2)sc1-c1cnc(NC(C)(C)C)cc1C(F)(F)F` [Example 268, [5-[6-(tert-Butylamino)-4-(trifluoromethyl)-3-pyridyl]-2-(3-hydroxy-3-methyl-azetidine-1-carbonyl)thiazol-4-yl]-[(2S)-2-methylpyrrolidin-1-yl]methanone]: in experiment [1] (setting [3]), the inhibition at 3 µM came out at 109%. Moreover, in experiment [1] (setting [4]), the IC50 stood at 0.11 µM. The Kd in experiment [2] came out at 2.4 nM.

Take `C[C@H]1CCCN1C(=O)c1nc(C(=O)NC2CCCC2O)sc1-c1cnc(NC(C)(C)C)cc1C(F)(F)F` (stereo partly drawn) [Example 347, 5-[6-(tert-Butylamino)-4-(trifluoromethyl)-3-pyridyl]-N-[cis-2-hydroxycyclopentyl]-4-[(2S)-2-methylpyrrolidine-1-carbonyl]thiazole-2-carboxamide]: in experiment [1] (setting [3]), the inhibition at 3 µM was 124%. Moreover, in experiment [1] (setting [4]), the 50% inhibitory concentration (IC50) came to 0.0038 µM. Also, in experiment [2], the Kd came to 0.38 nM.

In the case of `C[C@H]1CCCN1C(=O)c1nc(C(=O)NCC(C)(C)O)sc1-c1cnc(N[C@@H]2CCCCC2(F)F)cc1C(F)(F)F` (relative stereo) [Example 35, 5-(6-(((R*)-2,2-Difluorocyclohexyl)amino)-4-(trifluoromethyl)pyridin-3-yl)-N-(2-hydroxy-2-methylpropyl)-4-((S)-2-methylpyrrolidine-1-carbonyl)thiazole-2-carboxamide], the IC50 in experiment [1] (setting [5]) turned out to be 0.02 µM. In addition, the inhibition at 6 µM in experiment [1] (read-out: RORγt (FL) Reporter Assay B or C, % inhibition @ 6 μM, Conditions B or C, @ 6 μM) worked out at 114%. In addition, in experiment [2], the Kd stood at 3.9 nM.

On to `CC[C@H](Nc1cc(C(F)F)c(-c2sc(C(=O)N[C@@H](C)C(C)(C)O)nc2C(=O)N2CCC[C@@H]2C)cn1)C(F)(F)F` [Example 272, 5-[4-(Difluoromethyl)-6-[[(1S)-1-(trifluoromethyl)propyl]amino]-3-pyridyl]-N-[(1S)-2-hydroxy-1,2-dimethyl-propyl]-4-[(2S)-2-methylpyrrolidine-1-carbonyl]thiazole-2-carboxamide], for which the inhibition at 3 µM in experiment [1] (setting [3]) is 105%. Further, the half-inhibitory concentration (IC50) in experiment [1] (setting [4]) was determined as 0.018 µM. For the same compound, in experiment [2], the dissociation constant Kd was determined as 2.1 nM.

Regarding `C[C@H]1CCCN1C(=O)c1nc(C(=O)N[C@@H]2CC[C@@H](O)C2)sc1-c1cnc(NC(C)(C)C)cc1C(F)F` [Example 432, 5-[6-(tert-Butylamino)-4-(difluoromethyl)-3-pyridyl]-N-[(1R,3R)-3-hydroxycyclopentyl]-4-[(2S)-2-methylpyrrolidine-1-carbonyl]thiazole-2-carboxamide], the inhibition at 0.33 µM in experiment [1] (at 0.33 μM compound concentration, read-out: RORγt (FL) Reporter Assay B or C, % inhibition) stood at 122%. Also, the half-maximal inhibitory concentration (IC50) in experiment [1] (setting [4]) is 0.011 µM. The Kd in experiment [2] stood at 1.3 nM.

Regarding `CC[C@H](Nc1cc(C(F)F)c(-c2sc(C(=O)N[C@H](C)C(C)(C)O)nc2C(=O)N2CCC[C@@H]2C)cn1)C(F)(F)F` [Example 267, 5-[4-(Difluoromethyl)-6-[[(1S)-1-(trifluoromethyl)propyl]amino]-3-pyridyl]-N-[(1R)-2-hydroxy-1,2-dimethyl-propyl]-4-[(2S)-2-methylpyrrolidine-1-carbonyl]thiazole-2-carboxamide], in experiment [1] (setting [3]), the inhibition at 3 µM is 102%. For the same compound, the IC50 in experiment [1] (setting [4]) is 0.047 µM. In experiment [2], the Kd stood at 3.3 nM.

On to `CC(C)[C@@H](C)Nc1cc(C(F)F)c(-c2sc(C(=O)NCC(C)(C)O)nc2C(=O)N2CCC[C@@H]2C)cn1` [Example 297, 5-(4-(Difluoromethyl)-6-(((R)-3-methylbutan-2-yl)amino)pyridine-3-yl)-N-(2-hydroxy-2-methylpropyl)-4-((S)-2-methylpyrrolidine-1-carbonyl)thiazole-2-carboxamide], for which, in experiment [1] (setting [3]), the inhibition at 3 µM was 110%. For the same compound, in experiment [1] (setting [4]), the IC50 was 0.05 µM. Further, the Kd in experiment [2] is 18 nM.

The values above are taken from patent US10975068B2, “6-aminopyridin-3-yl thiazoles as modulators of RORγT” (Janssen Pharmaceutica NV, priority 2016, dated 2021).
